The source of these data is ChEMBL document CHEMBL1155737, “Antillatoxin B, a neurotoxic lipopeptide from the marine cyanobacterium Lyngbya majuscula” (J Nat Prod, 2001).

Series [1] can be described thus: Ichthyotoxicity in Carassius auratus. Format: organism-based. To be noted: in vivo.
A short description of series [2]: Activation of voltage-sensitive sodium channel in mouse neuro2a cells. The conditions noted are these: N2a. Format: cell-based.

By LC50 is commonly meant the concentration that kills 50% of the test population. The EC50 is the concentration that produces a half-maximal response. Read a low EC50 as greater potency. Molecule `C=C1CC(=O)N[C@@H](C)C(=O)N(C)[C@@H](CCc2ccccc2)C(=O)NCC(=O)O[C@@H](/C(C)=C/C(C)=C/C(C)(C)C)[C@@H]1C` [ANTILLATOXIN B] yielded an LC50 in series [1] of 1000 nM. Further, the EC50 in series [2] came to 1770 nM.

`C=C1CC(=O)N[C@@H](C)C(=O)N(C)[C@@H](C(C)C)C(=O)NCC(=O)O[C@@H](/C(C)=C/C(C)=C/C(C)(C)C)[C@@H]1C` [ANTILLATOXIN] came in with an EC50 in series [2] of 180 nM.
